For data set [1], the system named is human fetal neurons. Particulars: for magnitude of cell death vs Locke's buffer control: HIV proteins plus cocaine challenge with steroid pretreatment; for neuroprotection against synergistic toxicity of HIV proteins plus cocaine (percent neuronal death): pretreatment before Tat1-72 (40 nM) + gp120 (32.5 pM) + cocaine (1.6 μM). How it is done:
Culture of Human Brain Cells: Neuronal cultures were prepared as described previously (Magnuson D S, et al. Ann Neurol 1995, 37: 373-380; Nath A, et al. J Virol 1996, 70: 1475-1480; New D, et al. J Neurovirol 1997, 3: 168-173). Human fetal brain specimens of gestational age 12-14 weeks were obtained with the consent of women opting for elective termination of pregnancy. Protocols were carried out with strict adherence to the guidelines of the National Institutes of Health (NIH) and with approval from the University of Kentucky Institutional Review Board. Briefly, after mechanical dissociation, the cells were suspended in Opti-MEM with 5% heat-inactivated fetal bovine serum, 0.2% N2 supplement and 1% antibiotic solution (penicillin G sodium 104 units/ml, streptomycin sulfate 10 μg/ml and amphotericin-B 25 μg/ml) (GIBCO). The cells were maintained in culture flasks at 37° C. in a humidified atmosphere of 5% CO2 and 95% air for at least a month. At least 3 days before the experiment was performed the cells were plated in flat bottom 96 well plates coated with poly-d-lysine. Sample cultures were stained for the neuron-specific enolase, microtubule-associated protein-2, synaptophysin, and glial fibrillary astrocytic protein (GFAP). […] Sample cultures were further characterized for the presence of ER-α and ER-β and dopaminergic neurons.
Neurotoxicity Assay: At the time of the experimental treatment, the culture media was replaced with Locke's buffer containing (in mM) 154 NaCl, 5.6 KCl, 2.3 CaCl2, 1 MgCl2, 3.6 NaHCO3, 5 glucose, 5 N-2-hydroxyethylpiperazine-N′2-ethanesulfonic acid (HEPES) and 1% antibiotic solution (penicillin G sodium 104 units/ml, streptomycin sulfate 10 μg/ml and amphotericin-B 25 μg/ml) (pH 7.2). […] To replicate the stereoisomer specific neuroprotective properties of estrogen, the cultures were treated with either […] (10 nM), or 17α-E2 (10 nM) immediately preceding addition of the HIV proteins plus cocaine. To investigate the neuroprotective properties of other gonadal steroids, the cells were treated with various concentrations of PROG or T, immediately followed by exposure to the HIV proteins plus cocaine. […] Various concentrations of cholesterol were used as treatment prior to incubation with the HIV proteins plus cocaine to further characterize the nature of gonadal steroid neuroprotection. ICI-182,780, DMSO (10 nM), β-cyclodextrin (100 nM) and ethanol (10 nM) were also tested for neurotoxic/protective effects. ICI-182,780 and 17α-E2 were solvated in DMSO. […], T, PROG and cholesterol were β-cyclodextrin encapsulated to provide water solubility. Ethanol was used to solvate DHT. Tat1-72 was produced as indicated above, whereas gp120 was a gift from Chiron Corporation. The ICI-182,780 compound was obtained from Tocris Cookson, Inc. (Ellisville, Mo.). All other chemical agents were supplied by Sigma Chemicals (St. Louis, Mo.). At the end of the incubation period neuronal death was assessed by trypan blue (Sigma) exclusion assay as described previously (Vongher J and Frye C. Pharmacol Biochem Behav 1999, 64: 777-785; Magnuson D S, et al. Ann Neurol 1995, 37: 373-380; Nath A, et al. J Virol 1996, 70: 1475-1480).

The subject of data set [2] is SK-N-SH cells. Put plainly: DCFH fluorescence (oxidative stress) in SK-N-SH cells. Particulars: for effect of hormone on tat+gp120-induced fluorescence: gp120 (30 pM)+tat (60 nM), hormone 0.1 to 100 nM. It is filed as cell-based, human. The procedure: Cell Culture Assays: SK-N-SH cells (ATCC) were grown in RPMI 1640 with 1% streptomycin/amphotericin and 10% FBS and incubated at 37° C. in the presence of 5% CO2. Cells were subcultured into 96-well plates at a density of 10^4 cell/well and used within 24 hours. Plates were first washed with warmed Krebs buffer (KHB). Stock DCFH in DMSO was diluted in KHB to a final concentration of 100 μM and incubated in each well for 30 minutes. DCFH dye was removed and cells were washed with warmed KHB and the appropriate drug or drug combination was added. Plates were returned to the incubator and drugs were allowed to incubate for 30 minutes. Incubation with the free radical generator SIN-1 (3-morpholinosydnonimine-peroxynitrite and superoxide) was carried out for an additional 30 minutes. The second series of experiments utilized tat (10-250 nM) or gp120 (25-100 pM) in place of the free radical generator.
The concentration of either E2 or progesterone was 0.1 to 100 nM. Plates were returned to the incubator with the hormones and were allowed to incubate for 15 minutes. SIN-1 (50 μM) was chosen as the free radical generator due to the production of peroxynitrite. Previous studies have shown that this concentration of SIN-1 yielded maximum increases in DCFH fluorescence (Wang and Joseph, 1999). In groups that examined the protective effects of E2 and/or progesterone, the hormone was added 15 minutes prior to addition of SIN-1, tat or gp120. Studies that have examined the simultaneous addition of the oxidative stress agent and hormone have yielded attenuated results. Following incubation with SIN-1, tat or gp120 (depending on the assay), fluorescence was determined by using a Bio-Tek plate reader with the settings of 485 n (excitation) and 585 nm (emission) with an integration time of 40 ms. Assays were run four separate times in triplicate. Data are expressed as mean of the separate assays±SEM.

Data set [3] has as its target T1, dopamine transporter (Rattus norvegicus, UniProt P23977).
T1 construct: followed by differential centrifugation resulting in a crude P2 preparation; from tissue; host or cells: rat striatum (synaptosomes, crude P2 preparation)
Briefly: [3H] dopamine uptake in rat striatal synaptosomes. It is filed as biochemical. How it is done:
[^3H] Dopamine uptake in synaptosomes assays: Striatal tissue from 4-5 month old male Sprague-Dawley rats (N=4) was homogenized in 5 mL ice-cold 0.32 M sucrose using a glass/Teflon homogenizer followed by differential centrifugation resulting in a crude P2 preparation. Crude P2 preparations are resuspended to a final volume of 15 mL (0.13-0.15 μg protein/tube) in assay buffer (consisting of 25 mM HEPES, 120 mM NaCl, 5 mM KCl, 2.5 mM CaCl2, 1.2 mM MgSO4, […] ascorbic acid, 1 μM pargyline and 2 mg/mL D-(+) glucose). P2 preparation was then added to assay tubes in 400 μL, followed by 50 μL of buffer or drug. Uptake was initiated by the addition of [7, 8 ^3H] dopamine, 0.02 M acetic acid:ethanol (1:1) solution (Amersham Biosciences, UK). Synaptosomes were preincubated first with 100 nM E2 30 minutes to the initiation of uptake, followed by addition of the appropriate concentrations of gp120 (30 pM) and tat (60 nM), or both proteins, 15 minutes prior to the start of the uptake assay. […] Filters were washed 15 seconds with ice-cold 0.9% NaCl and total [^3H] dopamine uptake was determined by scintillation spectrophotometry. Nonspecific uptake was determined in a parallel set of tubes run in the presence of 1 μM Mazindol, a dopamine uptake inhibitor. Data are expressed as the mean±SEM (N=4).

Data set [4] deals with rat hippocampal neurons. Put plainly: Live/Dead (Calcein/Ethidium) viability of rat hippocampal neuronal cultures.
Data set [5] has as its system Sprague-Dawley rats. Briefly: Neonatal hippocampal gp120 injections with or without apomorphine: PPI in adult rats. It is filed as in vivo, rat.
Setting [6] is: HIV proteins plus cocaine challenge.

T1 sequence (P23977 whole entry): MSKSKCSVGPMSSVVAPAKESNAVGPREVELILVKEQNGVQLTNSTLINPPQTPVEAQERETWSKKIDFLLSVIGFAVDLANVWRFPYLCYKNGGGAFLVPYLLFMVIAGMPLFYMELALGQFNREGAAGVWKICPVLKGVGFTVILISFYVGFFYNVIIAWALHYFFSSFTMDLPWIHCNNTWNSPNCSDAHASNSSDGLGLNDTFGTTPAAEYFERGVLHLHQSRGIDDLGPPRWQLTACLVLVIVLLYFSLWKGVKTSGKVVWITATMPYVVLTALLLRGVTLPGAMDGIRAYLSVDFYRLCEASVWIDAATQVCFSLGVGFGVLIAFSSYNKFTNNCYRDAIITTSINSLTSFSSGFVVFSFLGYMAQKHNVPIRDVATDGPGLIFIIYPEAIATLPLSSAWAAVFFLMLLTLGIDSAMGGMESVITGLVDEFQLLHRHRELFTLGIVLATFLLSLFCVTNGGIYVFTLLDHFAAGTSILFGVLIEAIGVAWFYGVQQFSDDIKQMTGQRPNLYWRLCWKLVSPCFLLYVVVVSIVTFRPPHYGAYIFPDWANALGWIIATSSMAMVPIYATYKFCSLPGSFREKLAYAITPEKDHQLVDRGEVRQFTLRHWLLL

Regarding `C[C@]12CCC(=O)C[C@@H]1CC[C@@H]1[C@@H]2CC[C@]2(C)[C@@H](O)CC[C@@H]12` [DHT, 5α-Androstan-17β-ol-3-one; 17β-Hydroxy-5α-androstan-3-one], in data set [1] (setting [6]), the “concentration dependence of effect on percent neuronal death” value is “no concentration-dependent effect”. Besides, the “magnitude of cell death vs Locke's buffer control” value in data set [1] was “significantly greater than that observed with Locke's Buffer control”. Moreover, in data set [1] (15 hours), the “neuroprotection against synergistic toxicity of HIV proteins plus cocaine (percent neuronal death)” value (“neuroprotection … (percent neuronal death)” for short) is on record as “significant neuroprotection”.
Turning to `C[C@]12CC[C@@H]3c4ccc(O)cc4CC[C@H]3[C@@H]1CC[C@@H]2O` [E2, 17β-estradiol], the “neuroprotection … (percent neuronal death)” value in data set [1] (15 hours) was “precluded by pretreatment with 10 nM dose of 17β-E2”. Besides, the “SIN-1-induced fluorescence at highest concentration of E2” value in data set [2] (100 nM E2, 50 μM SIN-1) is recorded as “reduced fluorescence levels to control values”. Moreover, the “lowest E2 concentration with significant reduction of SIN-1-induced fluorescence” value in data set [2] (50 μM SIN-1, E2 0.1 to 100 nM) is reported as 1 nM. The “effect of hormone on tat+gp120-induced fluorescence” value in data set [2] is “concentrations of 1, 10 and 100 nM E2 were each significantly (p<0.001) different from control values”. Further, the “Vmax with gp120 + tat + E2” value in data set [3] (100 nM E2 with gp120 and tat, control 231) is 220 nmol/mg protein/minute. Besides, the “effect of E2 on gp120- or tat-induced reduction of [3H] dopamine uptake” value in data set [3] (co-incubation with 100 nM E2) is reported as “reversed this reduction”.
Turning to `CN1CCc2cc(Cl)c(O)cc2[C@@H](c2ccccc2)C1` [SCH 23390], the “neuronal cell viability, SCH 23390 alone” value in data set [4] (0.1 to 10 μM) is “did not cause any changes in neuronal cell viability”.
As for `N=c1c[n+](N2CCOCC2)[n-]o1` [SIN-1, 3-morpholinosydnonimine], the “lowest concentration with significant increase in fluorescence” value in data set [2] (SIN-1 0-500 μM) is 5 µM.
With `C[C@]12CC[C@@H]3c4ccc(O)cc4C[C@@H](CCCCCCCCC[S+]([O-])CCCC(F)(F)C(F)(F)F)[C@H]3[C@@H]1CC[C@@H]2O` (stereo partly shown) [ICI-182,780], the “blockade of T (10 nM) neuroprotection” value in data set [1] (ICI-182,780 100 nM pretreatment) is recorded as “fully blocked”. Further, the “neuroprotection … (percent neuronal death)” value in data set [1] (15 hours) is “nor was it neuroprotective against the toxic challenge”. The “toxicity alone vs Locke's buffer” value in data set [1] (substance alone, 15 hours) was “not more toxic to the cultures than was Locke's buffer”. Further, the “effect of ICI 182,780 on E2 attenuation of tat+gp120-induced fluorescence” value in data set [2] (100 nM E2+1 μM ICI 182,780) is “Neither progesterone nor E2+ICI 182,780 values differed significantly from control values”.
`Fc1ccc(C(OCCN2CCN(CCCc3ccccc3)CC2)c2ccc(F)cc2)cc1` [GBR-12909]: the “neurotoxicity of GBR 12909 alone” value in data set [4] (doses from 0.05 to 6 μM) is recorded as “not neurotoxic”.
With `CC(=O)[C@H]1CC[C@H]2[C@@H]3CCC4=CC(=O)CC[C@]4(C)[C@H]3CC[C@]12C` [PROG, progesterone], in data set [1] (setting [6]), the “concentration dependence of effect on percent neuronal death” value was “no concentration-dependent effect”. Further, the “magnitude of cell death vs Locke's buffer control” value in data set [1] was “significantly greater than that observed with Locke's Buffer control”. For the same compound, the “neuroprotection … (percent neuronal death)” value in data set [1] (15 hours) is “significant neuroprotection”. The “effect of hormone on tat+gp120-induced fluorescence” value in data set [2] is on record as “had no effect on tat+gp120-induced fluorescence”.
For `C[C@]12CC[C@@H]3c4ccc(O)cc4CC[C@H]3[C@@H]1CC[C@H]2O` [17α-E2], the “neuroprotection … (percent neuronal death)” value in data set [1] (15 hours) is recorded as “not significantly different from the synergistic toxicity control”.
For `CN1CCc2cccc3c2[C@H]1Cc1ccc(O)c(O)c1-3` [APO, apomorphine], the “peak ASR magnitude in PPI trials: gp120×drug interaction” value in data set [5] (8-120 msec ISIs) is recorded as “significantly altered the gp120 dose response”. In data set [5] (rat, in vivo), the “peak ASR latency in PPI trials” value is listed as “did not have an impact on latency response” and the “peak ASR magnitude, adaptation trials: apomorphine” value is “attenuated the baseline of peak magnitude of the ASR”.
In the case of `CC(C)CCC[C@@H](C)[C@H]1CC[C@H]2[C@@H]3CC=C4C[C@@H](O)CC[C@]4(C)[C@H]3CC[C@]12C` [Cholesterol], in data set [1] (setting [6]), the “concentration dependence of effect on percent neuronal death” value is given as “concentration-dependent effect of cholesterol with a significant linear decrease in percent neuronal death” and the “concentration giving maximal / full neuroprotection” value is reported as 100 nM. In addition, the “magnitude of cell death vs Locke's buffer control” value in data set [1] is on record as “not significantly different from that observed by Locke's buffer incubation”. In data set [1] (15 hours), the “neuroprotection … (percent neuronal death)” value is reported as “Significant neuroprotection”.
